# Measurements reported in patent US12378235B2, “HCK inhibitors for the treatment of fibrosis and cancer” (Icahn School of Medicine At Mount Sinai, priority 2019, dated 2025).
# Where “and” joins values, the source holds several entries; their conditions need not be identical. Equal entries are not always repeated. Where two headings read alike, the source gives them in different places.
# Columns and labels:
# HK2 cells [1] = assay: Anti-fibrosis effect: mRNA levels of fibrosis markers by RT-PCR in HK2 cells; format: cell-based; conditions: for mRNA levels of fibrosis markers: FIG. 3A and FIG. 3B
# Procedure: Anti-fibrosis effect was investigated by fibrosis markers in mRNA level. […] The mRNA levels of Veminten, FN1 and A-Sma were not affected. HK2 cells were treated with HCK inhibitor Examples 4, 7, and 8 at 10 uM and 20 uM overnight and then stimulated with TGF-beta for 8 hours. mRNA-levels of profibrotic markers by RT-PCR (normalized to GAPDH) from mRNA isolated in the cells. Values are mean±SEM; *P=0.05, […], ***P<0.001 between means; one-way ANOVA with Bonferroni multiple comparison test (FIG. 2B). Finally, it was shown that Examples 7, 8, and 13 reduced the mRNA levels of fibrosis markers (FIG. 3A and FIG. 3B).
# HCK = molecular target: T1, HCK (Homo sapiens, UniProt P08631); assay: P32 radioactive kinase assay (Reaction Biology Corp), HCK activity inhibition; format: biochemical; conditions: for remaining activity at 1 µM: 1 μM compound, read-out: % Enzyme Activity (relative to DMSO controls) HCK (1 μM); for remaining activity at 50 µM: 50 μM compound, read-out: % Enzyme Activity (relative to DMSO controls) HCK (50 μM)
# T1 construct: purchased Reaction Biology Corp
# T1 sequence (P08631 whole entry): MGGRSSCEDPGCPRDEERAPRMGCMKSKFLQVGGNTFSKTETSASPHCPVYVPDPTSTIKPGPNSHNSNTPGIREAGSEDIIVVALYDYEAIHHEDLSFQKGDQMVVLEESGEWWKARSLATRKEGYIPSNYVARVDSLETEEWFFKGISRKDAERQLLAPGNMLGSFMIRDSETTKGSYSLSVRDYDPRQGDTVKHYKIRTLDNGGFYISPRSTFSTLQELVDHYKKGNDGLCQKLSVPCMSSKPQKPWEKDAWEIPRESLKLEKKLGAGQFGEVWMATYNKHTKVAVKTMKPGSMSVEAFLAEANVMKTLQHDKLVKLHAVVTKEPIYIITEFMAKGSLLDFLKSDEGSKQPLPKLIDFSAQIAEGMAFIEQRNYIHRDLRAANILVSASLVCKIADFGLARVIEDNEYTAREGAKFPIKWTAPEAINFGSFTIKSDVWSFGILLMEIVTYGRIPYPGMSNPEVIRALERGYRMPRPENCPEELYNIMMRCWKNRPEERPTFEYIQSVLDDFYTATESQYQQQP
# Procedure: HCK activity inhibition efficiency for the inhibitors. Inhibiting efficiency was performed in Reaction Biology with Corp P32 radioactive kinase assay, comparing the compounds of the invention with dasatinib for HCK, Bcr-Abl and other binding kinases identified in reference. Most of the HCK inhibitors of the invention tested have IC50 of HCK activity at about 50 uM concentrations.
# HCK inhibiting efficiency was performed in Reaction Biology with Corp P32 radioactive kinase assay. Briefly, HCK kinase was delivered into the substrate solution and gently mixed, then compounds in DMSO were added into the kinase reaction mixture by Acoustic technology (Echo550; Nano liter range), and incubated for 20 minutes at room temperature. 33P-ATP was delivered into the reaction mixture to initiate the reaction. The kinase reaction was incubated for 2 hours at room temperature. Reactions were spotted onto P81 ion exchange paper, and detected kinase activity was measured by filter-binding method.
# HK2 cells [2] = assay: CellTiter 96 AQueous One Solution Cell Proliferation Assay (MTS) in HK2 cells; format: cell-based; conditions: Homo sapiens, HK-2, 24 hours treatment, MTS (FIG. 1), read-out: concentration that inhibits 50% of HK2 cell proliferation
# From the text: HCK inhibitors reduce cell proliferation. Excessive HCK activation is associated with several types of leukemia and enhances cell proliferation and survival by physical association with oncogenic fusion proteins, and with functional interactions with receptor tyrosine kinases. Elevated HCK activity is also observed in many solid malignancies, including breast and colon cancer, and correlates with decreased patient survival rates. HCK enhances the secretion of growth factors and pro-inflammatory cytokines from myeloid cells and promotes macrophage polarization towards a wound healing and tumor-promoting alternatively activated phenotype. Inhibition of HCK activity, therefore, should inhibit cancerous cell's proliferation. Compounds of the invention were measured for inhibition of cell proliferation with CellTiter 96® AQueous One Solution Cell Proliferation Assay (MTS) from Promega in HK2 cells. The compounds of the invention were diluted to serial concentrations. HK2 cells were cultured in 10% FBS and 1% P/S. The cells were treated with the compounds of the invention for 24 hours and then 20 μl/well of CellTiter 96® AQueous One Solution Reagent was added. Values were normalized to the percentages relative to DMSO controls. Values shown are mean±SEM.
# SMAD = SMAD binding activity in HK2 cells; format: cell-based
# From the text: Inhibition of HCK affects SMAD binding activity. Transforming growth factor-β(TGF-β) is the primary factor that drives fibrosis in most, if not all, forms of chronic kidney disease (CKD). TGF-β1 can induce renal fibrosis via activation of both canonical (Smad-based) and non-canonical (non-Smad-based) signalling pathways, which result in activation of myofibroblasts, excessive production of extracellular matrix (ECM) and inhibition of ECM degradation. The role of Smad proteins in the regulation of fibrosis is complex, with competing profibrotic and antifibrotic actions (including in the regulation of mesenchymal transitioning), and with complex interplay between TGF-β/Smads and other signalling pathways.
# LDH cytotoxicity assay = format: cell-based; conditions: different dosages, up to very high dose of 50 uM
# Procedure: LDH cytotoxicity assay for HCK inhibitors cytotoxicity. Toxicity refers to how poisonous or harmful a substance can be. In the context of pharmacology, drug toxicity occurs when a person has accumulated too much of a drug in his bloodstream, leading to adverse effects on the body. Drug toxicity may occur when the dose given is too high or the liver or kidneys are unable to remove the drug from the bloodstream, allowing it to accumulate in the body. Drug toxicity was measured with LDH cytotoxicity assay with different dosages of compounds of the invention.
# [3] = HK2 cells treated with 5, 10, 20 uM (FIG. 2A)
# [4] = second of two replicate columns
IC50 (HCK),remaining activity at 1 µM (HCK; first of two replicate columns) [%],remaining activity at 1 µM (HCK; [4]) [%],remaining activity at 50 µM (HCK; first of two replicate columns) [%],remaining activity at 50 µM (HCK; [4]) [%],Compound,"mRNA levels of Veminten, FN1 and A-Sma (HK2 cells [1]; [3])","mRNA levels of fibrosis markers collagen1, Snail, Mmp2 and Slug(Snail2) (HK2 cells [1]; [3])",mRNA levels of fibrosis markers (HK2 cells [1]),IC50 (HK2 cells [2]) [µM],SMAD activity in HK2 cells (SMAD),cytotoxicity (LDH assay) (LDH cytotoxicity assay)
< 50 µM and 30 µM,–,–,–,–,COc1cc(-c2nnc3n2N=C(c2ccc(Br)cc2)CS3)cc(OC)c1OC [Example 4],not affected,affected,–,–,–,–
< 50 µM,104,114,42.8,45,CCOC(=O)c1cnc(NC(=O)c2cc3cc(Cl)ccc3oc2=O)s1 [Example 7],–,–,reduced,10,–,–
< 50 µM,108,116,41.2,43.9,CCOC(=O)c1cnc(NC(=O)c2cc3cc(Cl)ccc3[nH]c2=O)s1 [Example 8],–,–,reduced,0.5,reduce SMAD activity,–
–,110,115,95,86.3,CCOC(=O)c1cnc(NC(=O)c2ccc(B3OC(C)(C)C(C)(C)O3)cc2)s1 [Example 9],–,–,–,–,–,–
–,104,99.4,89.1,96.5,CCOC(=O)c1cnc(NC(C#N)c2ccc(B3OC(C)(C)C(C)(C)O3)cc2)s1 (centres unmarked) [Example 10],–,–,–,–,–,–
–,93.5,103,74.5,68.5,CCOC(=O)c1cnc(NC(C#N)c2ccc(B(O)O)cc2)s1 (centres unmarked) [Example 11],–,–,–,–,–,–
< 50 µM,108,113,75.9,79.5,CCOC(=O)c1cnc(NC(C#N)C2=Cc3cc(Cl)cc(Cl)c3OC2c2ccccc2)s1 (centres unmarked) [Example 12],–,–,–,10,reduce SMAD activity,some cytotoxicity at very high dose of 50 uM
< 50 µM,109,113,68.4,65.5,CCOC(=O)c1cnc(NC(C#N)c2cc(-c3ccccc3)on2)s1 (centres unmarked) [Example 13],–,–,reduced,10,–,–
–,112,118,93.6,94.2,CCOC(=O)c1cnc(NC(=O)/C=C/c2ccccc2)s1 [Example 14],–,–,–,–,–,–
< 50 µM,86.6,83.4,6.63,5.97,CCOC(=O)c1cnc(NC(=O)C2=Cc3cc(Cl)cc(Cl)c3OC2c2ccccc2)s1 (centres unmarked) [Example 15],–,–,–,0.5,reduce SMAD activity,–
–,97.5,94,89.8,85,CCOC(=O)c1cnc(NC(=O)c2cc(OC)c(OC)c(OC)c2)s1 [Example 16],–,–,–,–,–,–
–,114,116,112,117,CCOC(=O)c1cnc(NC(=O)c2cc(-c3ccccc3)on2)s1 [Example 17],–,–,–,–,–,–
–,107,95,106,113,O=C(Nc1ncc(C(=O)O)s1)c1cc(-c2ccccc2)on1 [Example 18],–,–,–,–,–,–
–,99.2,100,94.1,90.7,COc1cc(C(=O)Nc2ncc(C(=O)O)s2)cc(OC)c1OC [Example 19],–,–,–,–,–,–
–,102,110,101,97.8,CCOC(=O)c1cnc(NC(=O)c2cc(Cl)cc(Cl)c2)s1 [Example 20],–,–,–,–,–,–
–,96.2,100,76.9,77.7,O=C(Nc1ncc(C(=O)O)s1)c1cc(Cl)cc(Cl)c1 [Example 21],–,–,–,–,–,–
